Consider eleven molecules from PubChem BioAssay (NCI).

Some test systems named below: CCRF-CEM leukemia; OVCAR-5 ovarian; SR leukemia; HOP-62 NSCLC; OVCAR-4 ovarian; HOP-92 NSCLC; ACHN renal; HL-60(TB) leukemia; 786-0 renal; SNB-75 CNS.
Experiment in all cases: growth of human tumour cells (NCI), 48 h

The structures appear in SMILES notation.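 A five-concentration, 48-hour dose response in 96-well plates underlies each endpoint, interpolated linearly between surrounding concentrations. GI50 is the concentration that inhibits growth by half. TGI denotes the concentration required for complete inhibition of growth.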

As to `O=c1cc2n(c(=O)[nH]1)C1OC(C(O)C1O)[C@@H]2CCO` (some centres not stated), the TGI in the assay with CCRF-CEM leukemia, with OVCAR-5 ovarian, with SR leukemia, in the assay with HOP-62 NSCLC, with OVCAR-4 ovarian and in the assay on HOP-92 NSCLC was > 100 µM throughout. Further, the TGI in the assay with ACHN renal, in the assay with HL-60(TB) leukemia and in the assay on 786-0 renal was > 100 µM in each case.
Turning to `CC1=CC[C@@H]2[C@@H](CC[C@@]2(C)O)C(C)(C)[C@H]1CC[C@@H]1[C@@]2(C)CCC(=O)C(C)(C)O[C@@H]2CC[C@]1(C)O`, the TGI is 48 µM in the assay on CCRF-CEM leukemia; > 100 µM in the assay with OVCAR-5 ovarian; 59.4 µM in the assay with SR leukemia; > 100 µM in the assay with HOP-62 NSCLC; > 100 µM with OVCAR-4 ovarian; > 100 µM in the assay with SNB-75 CNS. Besides, the TGI in the assay on ACHN renal is 42.4 µM; with HL-60(TB) leukemia it was 35 µM; with 786-0 renal, 59.6 µM.
As to `O=C1c2ccn(CCCCN3CCOCC3)c2C(=O)c2c1c(O)c1ccccc1c2O`, the GI50 is 2.75 µM in the assay with CCRF-CEM leukemia; 11.1 µM with OVCAR-5 ovarian; 4.55 µM in the assay on SR leukemia; 14.7 µM in the assay with HOP-62 NSCLC; 30.3 µM with OVCAR-4 ovarian; > 100 µM in the assay on SNB-75 CNS. Moreover, the GI50 was 10.8 µM in the assay on ACHN renal, 9.07 µM in the assay on HL-60(TB) leukemia and 6.34 µM in the assay with 786-0 renal. Moreover, the TGI in the assay with CCRF-CEM leukemia is > 100 µM; with OVCAR-5 ovarian, 23.8 µM; in the assay with SR leukemia, 33.6 µM; with HOP-62 NSCLC it was 34.5 µM; with OVCAR-4 ovarian, > 100 µM; in the assay on SNB-75 CNS it was > 100 µM. For the same molecule, the TGI amounted to 28.4 µM in the assay on ACHN renal, 59.9 µM in the assay with HL-60(TB) leukemia and 25.2 µM in the assay with 786-0 renal.
`COc1cc2c(cc1OC)C13CCN4CC5=CCOC(CC(=O)O)C(C5CC41)C3N2` (configuration not stated): the TGI in the assay with CCRF-CEM leukemia, in the assay on OVCAR-5 ovarian, in the assay with SR leukemia, in the assay on HOP-62 NSCLC, in the assay with OVCAR-4 ovarian and in the assay on HOP-92 NSCLC was > 100 µM throughout. Moreover, the TGI in the assay with ACHN renal, with HL-60(TB) leukemia and in the assay on 786-0 renal was > 100 µM each time.
As to `Cc1cccc(C)c1NC(=O)CCC(=O)NNC(=O)c1cc(O)c2ccccc2c1`, the TGI with CCRF-CEM leukemia is 72.5 µM; with OVCAR-5 ovarian, > 100 µM; in the assay with SR leukemia, > 100 µM; in the assay with HOP-62 NSCLC it was > 100 µM; in the assay with HOP-92 NSCLC, > 100 µM; in the assay on SNB-75 CNS, > 100 µM. Further, the TGI with ACHN renal was > 100 µM; in the assay on HL-60(TB) leukemia, 95.2 µM; in the assay on 786-0 renal, > 100 µM.
In the case of `CN(C)c1c(Cl)c(=O)oc2c1ccc1nc(-c3ccccc3)sc12`, the TGI in the assay with CCRF-CEM leukemia, with OVCAR-5 ovarian, in the assay with SR leukemia, in the assay with HOP-62 NSCLC, with OVCAR-4 ovarian and in the assay with HOP-92 NSCLC was > 100 µM in each case. The TGI in the assay on ACHN renal, with HL-60(TB) leukemia and in the assay with 786-0 renal was > 100 µM in each case.
On to `Cn1ncc2cc(-c3cnc(N)c(Cl)c3N3CCC4(CCNC4=O)CC3)ccc21`, for which the GI50 in the assay with CCRF-CEM leukemia was 36.9 µM; in the assay with OVCAR-5 ovarian, > 100 µM; in the assay with SR leukemia it was 6.4 µM; in the assay with HOP-62 NSCLC, 21.6 µM; in the assay on OVCAR-4 ovarian, 38.9 µM; in the assay on HOP-92 NSCLC, 13 µM. In addition, the GI50 in the assay with SNB-75 CNS was 17 µM; in the assay on HL-60(TB) leukemia, 16.8 µM; in the assay on 786-0 renal, 11.2 µM. Besides, the TGI was > 100 µM in the assay with CCRF-CEM leukemia; > 100 µM in the assay on OVCAR-5 ovarian; 57.2 µM with SR leukemia; > 100 µM in the assay on HOP-62 NSCLC; > 100 µM in the assay with OVCAR-4 ovarian; 82.4 µM with HOP-92 NSCLC. For the same molecule, the TGI was 77.8 µM in the assay with SNB-75 CNS, 42.6 µM with HL-60(TB) leukemia and > 100 µM in the assay on 786-0 renal.
For the molecule `COc1cc(-c2c3c(cn2S(=O)(=O)c2ccccc2)-c2nc(N)sc2CC3)cc(OC)c1OC`, the GI50 in the assay with OVCAR-5 ovarian was 4.25 µM; in the assay on SR leukemia it was 0.35 µM; with HOP-62 NSCLC, 2.05 µM; in the assay with OVCAR-4 ovarian it was 2.04 µM; with HOP-92 NSCLC it was 0.407 µM; in the assay on SNB-75 CNS, 0.222 µM. Further, the GI50 in the assay on ACHN renal was 0.797 µM; in the assay on HL-60(TB) leukemia it was 0.385 µM; with 786-0 renal it was 1.71 µM. Moreover, the TGI in the assay with OVCAR-5 ovarian was > 100 µM; in the assay on SR leukemia, 15.6 µM; in the assay on HOP-62 NSCLC it was 63.2 µM; with OVCAR-4 ovarian, 32.3 µM; in the assay on HOP-92 NSCLC, 8.34 µM; with SNB-75 CNS, 1.1 µM. The values for the TGI in the assay with ACHN renal, in the assay with HL-60(TB) leukemia and with 786-0 renal were 31.1 µM, 4.32 µM and 19.7 µM, respectively.
As for `COc1ccc2c(c1)Oc1nc(N)c(C#N)c(N)c1C2Sc1ccc(SC)cc1` (configuration not stated), the GI50 with OVCAR-5 ovarian was 1.8 µM; in the assay on SR leukemia it was 2.25 µM; in the assay on HOP-62 NSCLC, 1.83 µM; with OVCAR-4 ovarian it was 1.64 µM; in the assay with HOP-92 NSCLC, 1.94 µM; in the assay on SNB-75 CNS, 1.46 µM. Moreover, the GI50 with ACHN renal was 1.74 µM; in the assay with HL-60(TB) leukemia it was 1.99 µM; in the assay with 786-0 renal it was 1.66 µM. The TGI was determined as 3.55 µM in the assay on OVCAR-5 ovarian; 6.66 µM in the assay with SR leukemia; 3.49 µM in the assay with HOP-62 NSCLC; 3.07 µM in the assay with OVCAR-4 ovarian; 3.56 µM in the assay with HOP-92 NSCLC; 2.8 µM with SNB-75 CNS. Also, the figures for the TGI in the assay on ACHN renal, in the assay with HL-60(TB) leukemia and in the assay on 786-0 renal were 3.11 µM, 5.49 µM and 3.06 µM, respectively.
`CS(=O)(=O)C1S(=O)(=O)OCCOS1(=O)=O`: the TGI with OVCAR-5 ovarian, in the assay on SR leukemia, with HOP-62 NSCLC, with OVCAR-4 ovarian, in the assay with HOP-92 NSCLC and in the assay with SNB-75 CNS was > 100 µM each time. For the same molecule, the TGI in the assay with ACHN renal, with HL-60(TB) leukemia and in the assay on 786-0 renal was > 100 µM throughout.
Regarding `COc1ccc(-c2cc3c4c(nc5ccccc5c4c2)CC(c2cc(OC)c(OC)c(OC)c2)O3)cc1` (configuration not stated), the GI50 in the assay on CCRF-CEM leukemia was > 100 µM; in the assay with SR leukemia, 2.08 µM; in the assay on HOP-62 NSCLC, 2.98 µM; in the assay on HOP-92 NSCLC it was 1.62 µM; in the assay with SNB-75 CNS, 1.13 µM; with ACHN renal, 1.58 µM. Also, the GI50 with HL-60(TB) leukemia was > 100 µM; in the assay with 786-0 renal, 1.92 µM. The TGI in the assay on CCRF-CEM leukemia was > 100 µM; with SR leukemia it was > 100 µM; with HOP-62 NSCLC, 12.5 µM; with HOP-92 NSCLC, 4.71 µM; in the assay with SNB-75 CNS, 3.1 µM; with ACHN renal it was 3.11 µM. Moreover, the TGI is > 100 µM in the assay with HL-60(TB) leukemia and 3.74 µM in the assay with 786-0 renal.
